Experimental data as given in the kinase profiling compilation of Christmann-Franck et al. (2016).
Values joined by “and” are separate entries in the source; they are usually repeats but may differ in a detail not shown here. Identical values can stand only once.

Assays:
Assay in all cases: KINOMEscan competition binding
Conditions in all cases: compound 1.0 µM
[1] = test system: ABL1 (human), P00519 [E255K]
ABL2 (human) = ABL2 (human) (UniProt P42684)
ACVR1B (human) = ACVR1B (human) (UniProt P36896)
ADCK3 (human) = ADCK3 (human) (UniProt Q8NI60)
BMP2K (human) = BMP2K (human) (UniProt Q9NSY1)
BMPR1B (human) = BMPR1B (human) (UniProt O00238)
CHUK (human) = CHUK (human) (UniProt O15111)
DCLK3 (human) = DCLK3 (human) (UniProt Q9C098)
[2] = test system: EGFR (human), P00533 [746-750 del]
[3] = test system: EGFR (human), P00533 [G719S]
EPHB2 (human) = EPHB2 (human) (UniProt P29323)
EPHB4 (human) = EPHB4 (human) (UniProt P54760)
FGFR2 (human) = FGFR2 (human) (UniProt P21802)
FLT3 (human) = FLT3 (human) (UniProt P36888)
[4] = test system: FLT3 (human), P36888 [ITD]
FLT4 (human) = FLT4 (human) (UniProt P35916)
ITK (human) = ITK (human) (UniProt Q08881)
LTK (human) = LTK (human) (UniProt P29376)
MAP2K5 (human) = MAP2K5 (human) (UniProt Q13163)
MAP3K15 (human) = MAP3K15 (human) (UniProt Q6ZN16)
MAPK11 (human) = MAPK11 (human) (UniProt Q15759)
MAPK12 (human) = MAPK12 (human) (UniProt P53778)
MAPK4 (human) = MAPK4 (human) (UniProt P31152)
MAPK6 (human) = MAPK6 (human) (UniProt Q16659)
MUSK (human) = MUSK (human) (UniProt O15146)
NEK4 (human) = NEK4 (human) (UniProt P51957)
NEK6 (human) = NEK6 (human) (UniProt Q9HC98)
[5] = test system: PIK3CA (human), P42336 [E542K]
PKN1 (human) = PKN1 (human) (UniProt Q16512)
PLK4 (human) = PLK4 (human) (UniProt O00444)
PTK6 (human) = PTK6 (human) (UniProt Q13882)
RPS6KA1 KD2 (human) = RPS6KA1 KD2 (human) (UniProt Q15418)
RPS6KA4 KD1 (human) = RPS6KA4 KD1 (human) (UniProt O75676)
RPS6KA6 KD2 (human) = RPS6KA6 KD2 (human) (UniProt Q9UK32)
SBK1 (human) = SBK1 (human) (UniProt Q52WX2)
SIK1 (human) = SIK1 (human) (UniProt P57059)
SLK (human) = SLK (human) (UniProt Q9H2G2)
SNRK (human) = SNRK (human) (UniProt Q9NRH2)
STK25 (human) = STK25 (human) (UniProt O00506)

Measured: kinase still bound, per cent of control

Sequence of FLT3 (human) (P36888 whole entry, looked up): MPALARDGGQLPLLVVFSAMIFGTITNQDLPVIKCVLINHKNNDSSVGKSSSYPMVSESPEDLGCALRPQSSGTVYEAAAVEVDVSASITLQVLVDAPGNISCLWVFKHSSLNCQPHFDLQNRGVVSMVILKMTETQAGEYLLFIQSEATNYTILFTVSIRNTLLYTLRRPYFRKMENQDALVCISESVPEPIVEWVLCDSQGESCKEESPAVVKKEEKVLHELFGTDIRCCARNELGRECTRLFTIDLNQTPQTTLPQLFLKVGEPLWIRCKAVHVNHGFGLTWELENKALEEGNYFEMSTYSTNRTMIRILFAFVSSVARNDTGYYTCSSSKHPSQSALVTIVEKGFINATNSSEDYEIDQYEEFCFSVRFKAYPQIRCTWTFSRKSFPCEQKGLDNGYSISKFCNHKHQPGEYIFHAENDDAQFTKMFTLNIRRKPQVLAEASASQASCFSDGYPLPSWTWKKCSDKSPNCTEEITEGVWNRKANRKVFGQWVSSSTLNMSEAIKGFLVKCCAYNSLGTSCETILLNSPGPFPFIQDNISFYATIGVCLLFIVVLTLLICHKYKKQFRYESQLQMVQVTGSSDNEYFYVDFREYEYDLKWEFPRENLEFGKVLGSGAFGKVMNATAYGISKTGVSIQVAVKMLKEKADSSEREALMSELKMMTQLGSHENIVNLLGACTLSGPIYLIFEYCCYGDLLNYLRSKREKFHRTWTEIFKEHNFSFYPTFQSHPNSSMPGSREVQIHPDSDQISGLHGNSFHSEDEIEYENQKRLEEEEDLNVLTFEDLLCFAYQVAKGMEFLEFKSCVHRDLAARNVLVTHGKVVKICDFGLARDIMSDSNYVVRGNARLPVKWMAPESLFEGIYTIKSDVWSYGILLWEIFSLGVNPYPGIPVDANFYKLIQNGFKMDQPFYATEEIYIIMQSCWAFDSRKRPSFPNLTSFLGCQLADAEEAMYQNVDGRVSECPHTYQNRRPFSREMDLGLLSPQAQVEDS
Sequence of CHUK (human) (O15111 whole entry, looked up): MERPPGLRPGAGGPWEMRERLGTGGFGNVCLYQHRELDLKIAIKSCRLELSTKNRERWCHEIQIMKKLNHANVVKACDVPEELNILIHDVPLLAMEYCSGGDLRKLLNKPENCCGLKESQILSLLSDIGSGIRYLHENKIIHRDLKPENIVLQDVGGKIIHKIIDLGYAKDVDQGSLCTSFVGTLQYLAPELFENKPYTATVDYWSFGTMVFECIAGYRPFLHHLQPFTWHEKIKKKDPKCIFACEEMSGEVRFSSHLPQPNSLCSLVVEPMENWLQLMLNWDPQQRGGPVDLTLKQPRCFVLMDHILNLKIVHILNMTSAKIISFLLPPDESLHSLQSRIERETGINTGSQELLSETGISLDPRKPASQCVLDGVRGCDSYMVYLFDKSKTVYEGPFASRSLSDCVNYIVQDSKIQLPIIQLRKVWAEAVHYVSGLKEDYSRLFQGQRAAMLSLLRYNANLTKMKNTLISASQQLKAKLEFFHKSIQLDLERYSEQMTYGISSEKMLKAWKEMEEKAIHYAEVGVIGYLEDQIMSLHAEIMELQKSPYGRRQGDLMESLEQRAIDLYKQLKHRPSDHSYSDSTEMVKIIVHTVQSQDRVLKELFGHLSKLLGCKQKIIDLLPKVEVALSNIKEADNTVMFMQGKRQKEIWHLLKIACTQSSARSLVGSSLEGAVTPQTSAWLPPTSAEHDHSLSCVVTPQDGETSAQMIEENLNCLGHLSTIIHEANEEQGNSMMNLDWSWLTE
Sequence of FLT3 (human), P36888 [ITD] (P36888 whole entry, looked up, change not shown): as the sequence (P36888 whole entry, looked up) above
Sequence of PKN1 (human) (Q16512 whole entry, looked up): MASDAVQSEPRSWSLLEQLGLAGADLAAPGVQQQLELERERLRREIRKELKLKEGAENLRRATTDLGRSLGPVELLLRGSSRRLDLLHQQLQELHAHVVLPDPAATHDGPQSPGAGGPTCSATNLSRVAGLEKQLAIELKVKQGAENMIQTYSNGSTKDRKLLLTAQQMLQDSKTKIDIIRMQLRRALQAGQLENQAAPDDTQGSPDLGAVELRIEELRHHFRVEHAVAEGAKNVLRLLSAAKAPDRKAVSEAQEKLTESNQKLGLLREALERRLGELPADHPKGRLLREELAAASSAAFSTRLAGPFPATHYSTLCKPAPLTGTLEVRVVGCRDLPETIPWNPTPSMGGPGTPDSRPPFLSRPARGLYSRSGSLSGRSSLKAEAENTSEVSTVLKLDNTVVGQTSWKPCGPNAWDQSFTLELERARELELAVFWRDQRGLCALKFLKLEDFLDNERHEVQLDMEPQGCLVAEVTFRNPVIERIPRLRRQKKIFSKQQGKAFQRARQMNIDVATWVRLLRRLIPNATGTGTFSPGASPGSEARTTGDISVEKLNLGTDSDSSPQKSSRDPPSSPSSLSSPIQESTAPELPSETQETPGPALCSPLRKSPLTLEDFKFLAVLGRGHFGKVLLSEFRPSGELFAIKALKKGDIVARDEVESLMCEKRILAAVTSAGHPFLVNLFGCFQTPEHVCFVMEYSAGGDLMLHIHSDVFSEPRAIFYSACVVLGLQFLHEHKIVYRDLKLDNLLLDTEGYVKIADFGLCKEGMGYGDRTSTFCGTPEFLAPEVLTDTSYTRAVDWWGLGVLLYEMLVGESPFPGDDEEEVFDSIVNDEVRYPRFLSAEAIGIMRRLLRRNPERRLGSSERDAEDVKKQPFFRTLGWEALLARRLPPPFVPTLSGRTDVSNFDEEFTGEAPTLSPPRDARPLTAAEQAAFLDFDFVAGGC
Sequence of MUSK (human) (O15146 whole entry, looked up): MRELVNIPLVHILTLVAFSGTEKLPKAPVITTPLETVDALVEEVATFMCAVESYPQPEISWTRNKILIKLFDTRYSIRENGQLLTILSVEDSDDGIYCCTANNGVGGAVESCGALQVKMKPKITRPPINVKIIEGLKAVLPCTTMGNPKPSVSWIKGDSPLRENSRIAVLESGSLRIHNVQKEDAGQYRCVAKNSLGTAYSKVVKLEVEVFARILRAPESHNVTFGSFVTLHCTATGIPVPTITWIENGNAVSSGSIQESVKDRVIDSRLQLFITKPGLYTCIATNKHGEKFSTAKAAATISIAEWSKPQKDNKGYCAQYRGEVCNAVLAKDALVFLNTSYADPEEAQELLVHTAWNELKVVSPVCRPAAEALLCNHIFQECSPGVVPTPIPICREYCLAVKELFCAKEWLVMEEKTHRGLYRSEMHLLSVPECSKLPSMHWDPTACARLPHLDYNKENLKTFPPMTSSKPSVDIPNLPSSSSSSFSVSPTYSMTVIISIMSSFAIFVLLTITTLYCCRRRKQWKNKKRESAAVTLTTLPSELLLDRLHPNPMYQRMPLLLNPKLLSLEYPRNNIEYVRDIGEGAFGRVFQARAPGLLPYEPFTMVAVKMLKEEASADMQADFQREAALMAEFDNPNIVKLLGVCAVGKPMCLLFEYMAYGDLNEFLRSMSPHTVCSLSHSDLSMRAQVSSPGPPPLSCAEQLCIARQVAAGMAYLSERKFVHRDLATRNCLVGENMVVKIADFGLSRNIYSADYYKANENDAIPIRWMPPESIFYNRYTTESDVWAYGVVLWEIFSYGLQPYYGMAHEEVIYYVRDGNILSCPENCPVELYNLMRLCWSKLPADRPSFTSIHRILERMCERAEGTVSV
Sequence of NEK6 (human) (Q9HC98 whole entry, looked up): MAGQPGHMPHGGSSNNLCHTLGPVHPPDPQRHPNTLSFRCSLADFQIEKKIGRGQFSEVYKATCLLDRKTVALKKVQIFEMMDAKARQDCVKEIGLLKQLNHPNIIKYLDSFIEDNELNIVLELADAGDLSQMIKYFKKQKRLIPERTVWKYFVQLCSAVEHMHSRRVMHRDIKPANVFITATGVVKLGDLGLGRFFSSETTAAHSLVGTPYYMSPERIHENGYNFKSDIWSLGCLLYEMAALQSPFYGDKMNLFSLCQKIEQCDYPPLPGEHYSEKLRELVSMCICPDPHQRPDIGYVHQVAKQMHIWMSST
Sequence of FGFR2 (human) (P21802 whole entry, looked up): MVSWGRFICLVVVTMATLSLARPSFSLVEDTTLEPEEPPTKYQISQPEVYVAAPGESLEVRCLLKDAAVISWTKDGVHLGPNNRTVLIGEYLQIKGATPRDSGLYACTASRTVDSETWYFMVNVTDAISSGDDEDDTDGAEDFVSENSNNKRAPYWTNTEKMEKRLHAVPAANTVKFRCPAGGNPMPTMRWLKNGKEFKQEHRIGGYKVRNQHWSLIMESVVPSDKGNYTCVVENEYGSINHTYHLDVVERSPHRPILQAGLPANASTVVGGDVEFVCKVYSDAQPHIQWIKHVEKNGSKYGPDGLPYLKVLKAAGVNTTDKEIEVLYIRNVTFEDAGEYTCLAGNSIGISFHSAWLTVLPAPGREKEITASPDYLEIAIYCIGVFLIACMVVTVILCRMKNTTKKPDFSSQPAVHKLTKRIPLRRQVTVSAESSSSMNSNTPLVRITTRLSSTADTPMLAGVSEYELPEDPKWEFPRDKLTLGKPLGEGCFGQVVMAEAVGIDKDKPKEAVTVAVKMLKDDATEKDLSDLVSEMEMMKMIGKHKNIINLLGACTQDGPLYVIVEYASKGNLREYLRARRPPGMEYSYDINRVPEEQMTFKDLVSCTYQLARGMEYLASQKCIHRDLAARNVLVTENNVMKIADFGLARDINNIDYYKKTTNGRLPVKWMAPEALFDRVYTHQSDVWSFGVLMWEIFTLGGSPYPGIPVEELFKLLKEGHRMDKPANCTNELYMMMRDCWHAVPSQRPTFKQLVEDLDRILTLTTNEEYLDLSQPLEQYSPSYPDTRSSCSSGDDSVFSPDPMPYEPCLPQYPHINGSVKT

CNc1nc(Nc2ccc(C(=O)N3CCOCC3)cc2OC)ncc1Cl
50%: CHUK (human) | LTK (human)
47%: PTK6 (human)
62%: PLK4 (human)
88%: [2] | RPS6KA1 KD2 (human)
97%: MAP3K15 (human)
87%: [4] | NEK4 (human)
93%: FLT4 (human)
52%: [1]
79%: BMP2K (human)
89%: RPS6KA4 KD1 (human) | RPS6KA6 KD2 (human)
49% and 65%: FLT3 (human)
100%: all other assays above
